Reference: patent US8513423B2 (Janssen Pharmaceutica, NV, priority 2010, dated 2013)
Residue numbers refer to the chain shown, from its start. Read-outs that look alike come from different tables or passages of the source.

Assays:
[1] = biological target: T1, purified wild type MGL (wt-MGLL 6H-11-313) (Homo sapiens, UniProt Q99685); test: MGL enzyme activity assay (4MU-B cleavage), wild type MGL; format: biochemical; settings: 10 μM 4MU-B, 5 nM enzyme, 37° C., read-out: MGL wild type inh IC50
T1 construct: purified wild type MGL (wt-MGLL 6H-11-313)
T1 sequence (Q99685 1-303): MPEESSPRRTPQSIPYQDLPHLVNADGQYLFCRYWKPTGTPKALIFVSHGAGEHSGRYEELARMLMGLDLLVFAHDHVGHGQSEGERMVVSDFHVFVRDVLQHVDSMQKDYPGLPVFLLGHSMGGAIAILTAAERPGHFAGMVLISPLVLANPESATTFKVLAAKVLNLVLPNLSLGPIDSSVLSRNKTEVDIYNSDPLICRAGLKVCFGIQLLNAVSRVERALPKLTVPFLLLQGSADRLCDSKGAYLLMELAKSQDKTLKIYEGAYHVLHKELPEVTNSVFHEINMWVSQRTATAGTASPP
Method in brief: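 Enzyme (5 nM final) cleaved 4MU-B (10 μM final) in 20 mM PIPES pH 7.0 with 150 mM NaCl and 0.001% Tween 20. Compounds were tested at 17 to 0.0003 μM final. Fluorescence (ex 335/em 440 nm) was monitored at 37° C for 5 min, and IC50 was fitted from fractional activity versus inhibitor concentration.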

MGL = biological target: T2, MGL (Rattus norvegicus, UniProt Q8R431); test: 2-AG accumulation assay in rat brain homogenate; format: biochemical; settings: compound @1 μM; for 2-AG accumulation, percent of vehicle control at 1 µM: read-out: Rat Brain 2AG % VehCntrl (%) @1 μM
T2 construct: one g rat brain was homogenized; from tissue; host or cells: rat brain homogenate
T2 sequence (Q8R431 1-303): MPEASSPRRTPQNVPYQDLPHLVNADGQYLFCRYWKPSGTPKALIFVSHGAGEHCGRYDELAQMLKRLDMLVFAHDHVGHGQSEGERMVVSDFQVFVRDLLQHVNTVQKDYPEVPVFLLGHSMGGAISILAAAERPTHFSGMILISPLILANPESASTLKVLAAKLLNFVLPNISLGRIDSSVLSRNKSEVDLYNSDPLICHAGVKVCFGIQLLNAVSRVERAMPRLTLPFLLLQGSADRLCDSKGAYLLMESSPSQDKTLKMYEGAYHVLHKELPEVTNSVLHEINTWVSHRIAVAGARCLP
Protocol: After a 15-min incubation time at 37° C., CaCl2 (final concentration=10 mM) was added and then incubated for 15 min at 37° C. in a total volume of 5 mL. The reactions were stopped with 6 mL organic solvent extraction solution of 2:1 chloroform/methanol. Accumulated 2-AG in the organic phase was measured by a HPLC/MS method, according to the following equation: percent vehicle=(2-AG accumulation in the presence of compound/2-AG accumulation in vehicle)×100.

mutant MGL = biological target: T3, mutant MGL (Homo sapiens, UniProt Q99685, L169S/L176S); test: MGL ThermoFluor assay - mutant; format: binding
T3 construct: purified mutant MGL (mut-MGLL 11-313 L179S L186S)
T3 sequence (Q99685 1-303 L169S/L176S): T1 sequence (Q99685 1-303) with L169S, L176S
Method in brief: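 Thermal shift binding with 0.07 mg/ml L169S/L176S MGL, 100 μM 1,8-ANS, 200 mM NaCl, 0.001% Tween-20, 50 mM PIPES pH 7.0. Heated 40–90 °C at 1 °C/min, fluorescence (em 500 nm) tracked to give Tm; Kd fitted from 11-point concentration–Tm response, qKd when stocks quantified by qNMR.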

[2] = 0.07 mg/ml mutant MGL, pH=7.0, read-out: MGL mutant ThermoFluor Kd
[3] = compound concentration measured by qNMR, read-out: MGL mutant ThermoFluor qKd (using qNMR conc.)

Molecule | IC50 [1] | 2-AG accumulation, percent of vehicle control at 1 µM (MGL) | Kd (mutant MGL; [2]) | Kd (mutant MGL; [3]) | Rat Brain 2AG % VehCntrl (%) @1 μM (MGL; percent vehicle)
O=C(c1ccc(-c2ccc(C(F)(F)F)s2)cc1)N1CC(C2CCN(C(=O)c3cscn3)CC2)C1 [Cpd 12, 1-(1,3-Thiazol-4-ylcarbonyl)-4-[1-({4-[5-(trifluoromethyl)thiophen-2-yl]phenyl}carbonyl)azetidin-3-yl]piperidine] | 10 nM | 134% | 22 nM | – | –
O=C(c1ccc(-c2cccc(C(F)(F)F)c2)cc1)N1CCC(C2CN(C(=O)c3ccc[nH]3)C2)CC1 [Cpd 50, 4-[1-(1H-Pyrrol-2-ylcarbonyl)azetidin-3-yl]-1-{[3′-(trifluoromethyl)biphenyl-4-yl]carbonyl}piperidine] | < 5 nM | 561% | – | 1 nM | –
O=C(c1ccc2c(ccn2-c2ccc(F)cc2)c1)N1CCC(C2CN(C(=O)c3cscn3)C2)CC1 [Cpd 73, 1-(4-Fluorophenyl)-5-({4-[1-(1,3-thiazol-4-ylcarbonyl)azetidin-3-yl]piperidin-1-yl}carbonyl)-1H-indole] | 12 nM | 875% | – | 4.8 nM | –
O=C(c1ccc2c(ccn2-c2ccc(C(F)(F)F)cc2)c1)N1CC(C2CCN(C(=O)c3cscn3)CC2)C1 [Cpd 37, 5-({3-[1(1,3 -Thiazol-4-ylcarbonyl)piperidin-4-yl]azetidin-1-yl}carbonyl)-1-[4-(trifluoromethyl)phenyl]-1H-indole] | < 5 nM | 163% | 16 nM | – | –
O=C(c1ccc2c(ccn2-c2ccc(F)c(F)c2)c1)N1CC(C2CCN(C(=O)c3ccc[nH]3)CC2)C1 [Cpd 44] | < 5 nM | 107% | – | 21.3 nM | –
O=C(c1ccc(Cc2ccc(C(F)(F)F)cc2)cc1)N1CC(C2CCN(C(=O)c3ccc[nH]3)CC2)C1 [Cpd 39, 1-(1H-Pyrrol-2-ylcarbonyl)-4-[1-({4-[4-(trifluoromethyl)benzyl]phenyl}carbonyl)azetidin-3-yl]piperidine] | < 5 nM | 371% | – | 48.9 nM | –
1-(1H-Pyrrol-2-ylcarbonyl)-4-[1-({4-3-(trifluoromethyl)benzyl]phenyl}carbonyl)azetidin-3-yl]piperidine [Cpd 25] | 12 nM | – | 27.5 nM | – | 540%
O=C(c1ccc2nc(-c3ccccc3)oc2c1)N1CC(C2CCN(C(=O)c3nccs3)CC2)C1 [Cpd 28, 2-Phenyl-6-({3-[1-(1,3-thiazol-2-ylcarbonyl)piperidin-4-yl]azetidin-1-yl}carbonyl)-1,3-benzoxazole] | 16.4 nM | 777% | 11.1 nM | – | –
O=C(c1ccc(Cc2cccc(C(F)(F)F)c2)cc1)N1CC(C2CCN(C(=O)c3cscn3)CC2)C1 [Cpd 13, 1-(1,3-Thiazol-4-ylcarbonyl)-4-[1-({4-[3-(trifluoromethyl)benzyl]phenyl}carbonyl)azetidin-3-yl]piperidine] | < 5 nM | 335% | 28 nM | – | –
O=C(c1nccs1)N1CC(C2CCN(C(=O)c3ccc(-c4ccccc4)cc3F)CC2)C1 [Cpd 45] | < 5 nM | 385% | – | 12.2 nM | –
O=C(c1ccc2c(ccn2-c2ccc(F)cc2)c1)N1CC(C2CCN(C(=O)c3cscn3)CC2)C1 [Cpd 36, 1-(4-Fluorophenyl)-5-({3-[1-(1,3-thiazol-4-ylcarbonyl)piperidin-4-yl]azetidin-1-yl}carbonyl)-1H-indole] | < 5 nM | 507% | 22.5 nM | – | –
O=C(c1cccc(-c2cccc(F)c2)c1)N1CCC(C2CN(C(=O)c3ccc[nH]3)C2)CC1 [Cpd 53, 1-[(3′-Fluorobiphenyl-3-yl)carbonyl]-4-[1-(1H-pyrrol-2-ylcarbonyl)azetidin-3-yl]piperidine] | 46.6 nM | 225% | – | 33.3 nM | –
